Measured values published in patent publication US5690904A, “Diagnostic radiopharmaceutical compounds (That)” (priority 1995, dated 1997).

Key:
[1] = Biodistribution of 99mTc labelled complexes in rats (Tc brain bioassay, Example 64, Table I); type: in vivo, Female Sprague-Dawley rats; conditions: rat, i.v. tail vein
Procedure: Distribution of the ^99m Tc labelled compounds was evaluated in rats. Female Sprague-Dawley rats weighing 140 to 220 g (average 170 g) were anaesthetised with sodium pentobarbital and were injected in a tail vein with 0.05 to 10mCi of the ^99m Tc labelled complex in a volume of 0.2 to 0.5 ml. At least two rats were injected for each time point.
The animals were sacrificed at 5 and 30 minutes post injection and selected organs were removed; the tails were discarded to avoid interference from the injection site. The radioactivity in each organ was measured at a standard geometry with a […] sodium iodide scintillation counter adjusted for the 140 KeV emission of ^99m Tc. The organs were also weighed to one hundredth of a gram and the activity was calculated as a percent of administered dose per gram. The important determinations are the amount of activity in the brain and the brain:blood ratio.

[2] = Electrophoresis of 99mTc complexes (charge); type: physicochemical
Description: After labelling, and if required, the resultant ^99m Tc chelate complexes can be purified by passing through a C-18 Sep Pak column.

[3] = 0.05M NaH2PO4, pH 4.5, 300 volts, 30 min
[4] = 0.1M NaH2PO4, pH 6.8, 250 volts, 25 min
[5] = 0.1M NaH2PO4, pH 6.8, 200 volts, 30 min

SMILES: C[SH]1c2ccccc2[N]2CC[N]3C(=O)C(C)(C)[S][Tc]321=[O] (stereo not shown) [Example T712, ^99m Tc complex of N[2-(((methyl-2-mercapto)propionyl)amino)ethyl]-2-methylthio aniline]
- Brain % dose ([1]; 5 min post injection): 1.69 % dose
- Brain:blood ([1]; 5 min post injection): 1.04
- Heart % dose ([1]; 5 min post injection): 0.61 % dose
- Heart:blood ([1]; 5 min post injection): 1.07
- Brain % dose ([1]; 30 min post injection): 1.73 % dose
- Brain:blood ([1]; 30 min post injection): 1.13
- Heart % dose ([1]; 30 min post injection): 0.53 % dose
- Heart:blood ([1]; 30 min post injection): 0.74
- Electrophoresis (charge) ([2]; 0.05M NaH2PO4, pH 4.5, 3000 volts, 30 min): neutral

SMILES: C[SH]1c2ccccc2[N]2CC(=O)[N]3CC(C)(C)[S][Tc]321=[O] (stereo not shown) [Example T729, ^99m Tc complex of N[2-oxo-2(N^1 ((2-methyl-2-mercapto)propyl)amino)ethyl]-2-methylthioaniline]
- Brain % dose ([1]; 5 min post injection): 0.87 % dose
- Brain:blood ([1]; 5 min post injection): 0.19
- Heart % dose ([1]; 5 min post injection): 0.70 % dose
- Heart:blood ([1]; 5 min post injection): 0.34
- Brain % dose ([1]; 30 min post injection): 0.21 % dose
- Brain:blood ([1]; 30 min post injection): 0.08
- Heart % dose ([1]; 30 min post injection): 0.28 % dose
- Heart:blood ([1]; 30 min post injection): 0.36
- Electrophoresis (charge) [2, 3]: neutral

SMILES: C[SH]1C(C)(C)C(=O)[N]2CC[N]3c4ccccc4[S][Tc]231=[O] (stereo not shown) [Example T711]
- Brain % dose ([1]; 5 min post injection): 2.33 % dose
- Brain:blood ([1]; 5 min post injection): 4.24
- Heart % dose ([1]; 5 min post injection): 0.88 % dose
- Heart:blood ([1]; 5 min post injection): 3.38
- Brain % dose ([1]; 30 min post injection): 0.47 % dose
- Brain:blood ([1]; 30 min post injection): 1.54
- Heart % dose ([1]; 30 min post injection): 0.23 % dose
- Heart:blood ([1]; 30 min post injection): 1.51
- Electrophoresis (charge) [2, 4]: neutral

SMILES: CCC[SH]1C(C)(C)C(=O)[N]2CC[N]3c4ccccc4[S][Tc]231=[O] (stereo not shown) [Example T713, ^99m Tc complex of N[2-(((2-methyl-2-propylthio)propionyl)amino)ethyl]-2-amino-thiophenol]
- Brain % dose ([1]; 5 min post injection): 1.55 % dose
- Brain:blood ([1]; 5 min post injection): 4.34
- Heart % dose ([1]; 5 min post injection): 0.59 % dose
- Heart:blood ([1]; 5 min post injection): 3.68
- Brain % dose ([1]; 30 min post injection): 0.46 % dose
- Brain:blood ([1]; 30 min post injection): 1.83
- Heart % dose ([1]; 30 min post injection): 0.19 % dose
- Heart:blood ([1]; 30 min post injection): 1.84
- Electrophoresis (charge) [2, 4]: neutral

SMILES: CC1(C)C(=O)[N]2CC[N]3c4ccccc4[S][Tc]23(=[O])[SH]1CCC#N (stereo not shown) [Example T731, ^99m Tc complex of N[2-(((2-methyl-2-(2-cyanoethylthio))propionyl)amino)ethyl]-2-(4-methoxybenzylthio)aniline]
- Brain % dose ([1]; 5 min post injection): 1.49 % dose
- Brain:blood ([1]; 5 min post injection): 0.42
- Heart % dose ([1]; 5 min post injection): 1.01 % dose
- Heart:blood ([1]; 5 min post injection): 0.68
- Brain % dose ([1]; 30 min post injection): 0.60 % dose
- Brain:blood ([1]; 30 min post injection): 0.21
- Heart % dose ([1]; 30 min post injection): 0.58 % dose
- Heart:blood ([1]; 30 min post injection): 0.42
- Electrophoresis (charge) [2, 3]: neutral

SMILES: CCCC[SH]1C(C)(C)C(=O)[N]2CC[N]3c4ccccc4[S][Tc]231=[O] (stereo not shown) [Example T714, ^99m Tc complex of N[2-(((2-methyl-2-butylthio)propionyl)amino)ethyl]-2-amino-thiophenol]
- Brain % dose ([1]; 5 min post injection): 1.43 % dose
- Brain:blood ([1]; 5 min post injection): 3.11
- Heart % dose ([1]; 5 min post injection): 0.82 % dose
- Heart:blood ([1]; 5 min post injection): 3.67
- Brain % dose ([1]; 30 min post injection): 0.50 % dose
- Brain:blood ([1]; 30 min post injection): 1.66
- Heart % dose ([1]; 30 min post injection): 0.27 % dose
- Heart:blood ([1]; 30 min post injection): 1.79

SMILES: CC[SH]1C(C)(C)C(=O)[N]2CC[N]3c4ccccc4[S][Tc]231=[O] (stereo not shown) [Example T715, ^99m Tc complex of N[2-(((2-methyl-2-ethylthio)propionyl)amino)ethyl]-2-amino-thioplhenol]
- Brain % dose ([1]; 5 min post injection): 2.55 % dose
- Brain:blood ([1]; 5 min post injection): 5.19
- Heart % dose ([1]; 5 min post injection): 0.84 % dose
- Heart:blood ([1]; 5 min post injection): 3.73
- Brain % dose ([1]; 30 min post injection): 0.51 % dose
- Brain:blood ([1]; 30 min post injection): 1.36
- Heart % dose ([1]; 30 min post injection): 0.23 % dose
- Heart:blood ([1]; 30 min post injection): 1.40

SMILES: CC1(C)C(=O)[N]2CC[N]3c4ccccc4[S][Tc]23(=[O])[SH]1CCCl (stereo not shown) [Example T730, ^99m Tc complex of N[2-(((2-methyl-2-(2-chloroethylthio))propionyl)amino)ethyl]-2-(4-methoxybenzylthio)aniline]
- Brain % dose ([1]; 5 min post injection): 2.45 % dose
- Brain:blood ([1]; 5 min post injection): 6.1
- Heart % dose ([1]; 5 min post injection): 0.71 % dose
- Heart:blood ([1]; 5 min post injection): 3.97
- Brain % dose ([1]; 30 min post injection): 0.73 % dose
- Brain:blood ([1]; 30 min post injection): 1.8
- Heart % dose ([1]; 30 min post injection): 0.29 % dose
- Heart:blood ([1]; 30 min post injection): 1.53
- Electrophoresis (charge) [2, 3]: neutral

SMILES: CC1(C)C(=O)[N]2CC[N]3c4ccccc4[S][Tc]23(=[O])[SH]1CCCN (stereo not shown) [Example T728, ^99m Tc complex of N[2-(((2-methyl-2-(3-aminopropylthio))propionyl)amino)ethyl]-2-(4-methoxybenzylthio) aniline]
- Brain % dose ([1]; 5 min post injection): 0.03 % dose
- Brain:blood ([1]; 5 min post injection): 0.04
- Heart % dose ([1]; 5 min post injection): 1.68 % dose
- Heart:blood ([1]; 5 min post injection): 4.36
- Brain % dose ([1]; 30 min post injection): 0.03 % dose
- Brain:blood ([1]; 30 min post injection): 0.05
- Heart % dose ([1]; 30 min post injection): 0.74 % dose
- Heart:blood ([1]; 30 min post injection): 2.11

SMILES: C=CC[SH]1C(C)(C)C(=O)[N]2CC[N]3c4ccccc4[S][Tc]231=[O] (stereo not shown) [Example T719, ^99m Tc complex of N[2-(((2-methyl-2-allylthio)propionyl)amino)ethyl]-2-(4-methoxybenzylthio)aniline]
- Brain % dose ([1]; 5 min post injection): 1.86 % dose
- Heart % dose ([1]; 5 min post injection): 0.78 % dose
- Brain:blood ([1]; 5 min post injection, 5 min): 1.32
- Heart:blood ([1]; 5 min post injection, 5 min): 1.36
- Brain % dose ([1]; 30 min post injection): 0.48 % dose
- Heart % dose ([1]; 30 min post injection): 0.40 % dose
- Brain:blood ([1]; 30 min post injection, 30 min): 0.26
- Heart:blood ([1]; 30 min post injection, 30 min): 0.55

SMILES: CC1(C)C(=O)[N]2CC[N]3c4ccccc4[S][Tc]23(=[O])[SH]1CCO (stereo not shown) [Example T726, ^99m Tc complex of N[2-(((2-methyl-2-(2-hydroxyethylthio))propionyl)amino)ethyl]-2-(4-methoxybenzylthio) aniline]
- Brain % dose ([1]; 5 min post injection): 1.11 % dose
- Brain:blood ([1]; 5 min post injection): 1.82
- Heart % dose ([1]; 5 min post injection): 0.73 % dose
- Heart:blood ([1]; 5 min post injection): 3.22
- Brain % dose ([1]; 30 min post injection): 0.32 % dose
- Brain:blood ([1]; 30 min post injection): 0.93
- Heart % dose ([1]; 30 min post injection): 0.28 % dose
- Heart:blood ([1]; 30 min post injection): 2.08
- Electrophoresis (charge) [2, 5]: neutral

SMILES: COC(=O)C[SH]1C(C)(C)C(=O)[N]2CC[N]3c4ccccc4[S][Tc]231=[O] (stereo not shown) [Example T727, ^99m Tc complex of N[2-(((2-methyl-2-(methoxycarbonylmethylenethio))propionyl)amino)ethyl]-2-(4-methoxybenzylthio)aniline]
- Brain % dose ([1]; 5 min post injection): 0.09 % dose
- Brain:blood ([1]; 5 min post injection): 0.09
- Heart % dose ([1]; 5 min post injection): 0.45 % dose
- Heart:blood ([1]; 5 min post injection): 1.26
- Brain % dose ([1]; 30 min post injection): 0.07 % dose
- Brain:blood ([1]; 30 min post injection): 0.06
- Heart % dose ([1]; 30 min post injection): 0.18 % dose
- Heart:blood ([1]; 30 min post injection): 0.42
- Electrophoresis (charge) ([2]; 0.05M NaH2PO4, pH 4.5, 300 volts, 35 min): neutral

SMILES: CCC[SH]1c2ccccc2[N]2CC[N]3C(=O)C(C)(C)[S][Tc]321=[O] (stereo not shown) [Example T717, ^99m Tc N[2-(((2-methyl-2-mercapto)propionyl)amino)ethyl]-2-propylthioaniline]
- Brain % dose ([1]; 5 min post injection): 1.27 % dose
- Brain:blood ([1]; 5 min post injection): 1.21
- Heart % dose ([1]; 5 min post injection): 0.98 % dose
- Heart:blood ([1]; 5 min post injection): 1.88
- Brain % dose ([1]; 30 min post injection): 1.24 % dose
- Brain:blood ([1]; 30 min post injection): 1.23
- Heart % dose ([1]; 30 min post injection): 0.48 % dose
- Heart:blood ([1]; 30 min post injection): 1.00
- Electrophoresis (charge) [2, 5]: neutral

SMILES: C#CC[SH]1C(C)(C)C(=O)[N]2CC[N]3c4ccccc4[S][Tc]231=[O] (stereo not shown) [Example T722, ^99m Tc complex of N[2-(((2-methyl-2-(2-propynylthio))propionyl)amino)ethyl]-2-(4-methoxybenzylthio)aniline]
- Brain % dose ([1]; 5 min post injection): 1.58 % dose
- Brain:blood ([1]; 5 min post injection): 0.57
- Heart % dose ([1]; 5 min post injection): 0.74 % dose
- Heart:blood ([1]; 5 min post injection): 0.67
- Brain % dose ([1]; 30 min post injection): 0.68 % dose
- Brain:blood ([1]; 30 min post injection): 0.31
- Heart % dose ([1]; 30 min post injection): 0.48 % dose
- Heart:blood ([1]; 30 min post injection): 0.52
